Measurements published in patent US6410752B1, “Tocopherol derivatives and method for preparation thereof” (Pacific Corporation, priority 2000, dated 2002).
Like-named read-outs stand apart in the source and are kept apart here.

Columns and labels:
[1] = Measurement of antioxidant activity using Lard oil; conditions: 60° C. dark room, when weight no longer changed, NMR spectroscopy
Protocol: 2.0 g of Lard oil was poured on petri-dish, and here 40 mmol of each of tocopherol, preparation example 1 or tocopherol acetate was added. Then, the mixture solution was maintained in a dark room of 60° C. The oxidation ratio of Lard oil was determined by daily measurement of the change in weight. The less is the changeability in weight of Lard oil, the stronger is the antioxidant ability, because the increase in weight of Lard oil is related to the oxidation of Lard oil.
In the meantime, when the change in weight of Lard oil was not observed any longer, the oxidation ratio was determined by using NMR spectroscopy.

[2] = Measurement of antioxidant activity using linoleic acid; conditions: 60° C. dark room, when weight no longer changed, NMR spectroscopy
Protocol: 2.0 g of pure linoleic acid was poured on a petri-dish, and here 40 mmol of each of tocopherol, preparation example 1 or tocopherol acetate was added. Then, the mixture solution was maintained in a dark room of 60° C. The oxidation ratio of linoleic oil was measured by daily measurement of the change in weight. The less is the changeability in weight of linoleic acid, the stronger is the antioxidant ability, because the increase in weight of linoleic acid is related to the oxidation of linoleic oil.
In the meantime, when the change in weight of linoleic acid was not observed any longer, the oxidation ratio was determined by using NMR spectroscopy.

[3] = 60° C., in cetylethyl-hexanoate; for Residual ration(%): HPLC
Protocol: Each 3 g of preparation example 1 product and tocopherol was dissolved with 100 ml of cetylethyl-hexanoate. […] Then, residual ratio of each compound was analyzed by using HPLC. Here, phenyl column, eluate solution of 70% aqueous THF solution including 10 mM SDS and 50 mM H3PO4, flow rate of 1 ml/min and detection of 286 nm was used as HPLC analysis condition of preparation example 1. And ODS column, MeOH as eluate solution, flow rate of 1 ml/min and detection of 290 nm was used as HPLC analysis condition of tocopherol for control.

[4] = 60° C., in cetylethyl-hexanoate, six months, unaided eye
[5] = tested on: Fibroblast cells of infant; conditions: 24 hours, none-treated sample = 100
Protocol: The effect on promoting biosynthesis of collagen was examined in vitro for assaying the effect of the present invention on skin, comparing to 3-amino propane phosphate.
Fibroblast cells of infant were inoculated on 24-wells(10^5 cells/well). They were washed with PBS once. And then, preparation example 1 and 3-aminopropane phosphate as a control were treated by the concentration shown Table 3, and were incubated at CO2 incubator for 24 hours. Each supernatant was collected, and the variation of procollagen was measured by using procollangen type (I) ELISA kit. The value of biosynthesis activity was calculated by comparing to 100, the value of none-treated sample.

[6] = tested on: mice; conditions: oral, 1 ml/kg of 10% solution in squalene
Protocol: (§1) If the tocopherol derivatives should be used as cosmetic ingredient, their safety in the living body is very important. […] The product of Preparation Example 1 was dissolved in squalene to produce 10% of solution sample, and the sample was employed in safety experiments.
Acute oral toxicity test in mice: 1 ml/kg of the sample was administrated to total ten (10) mice (male and female were separately five (5) mice).

[7] = tested on: mice; conditions: percutaneous once, 0.2 ml/kg of 10% solution in squalene, two weeks of observation
Protocol: as §1
(§2) 1-2. Acute dermal toxicity test in mice and rabbits: 0.2 ml/kg of the sample was administrated percutaneously once to a total of ten (10) mice (five male and five female).

[8] = tested on: rabbits; conditions: same experiment as in mice (percutaneous, 10% solution in squalene)
Protocol: as §1, §2

[9] = tested on: rabbits; conditions: 0.1 ml of 10% solution in squalene on depilated back site
Protocol: as §1
1-3. Primary skin irritation test: 0.1 ml of test sample was applied to back site (2.5 cm×2.5 cm) of each of 12 rabbits depilated 24 hours before.

[10] = tested on: rabbits; conditions: 0.1 ml of sample diluted with saline to 2%
Protocol: as §1
1-4. Eye irritation test: The sample was diluted with saline to produce 2% of test sample, and 0.1 ml of the diluted solution was applied to the eye of each of nine (9) rabbits.

[11] = tested on: Guinea pigs; conditions: 10% solution in squalene
Protocol: as §1
1-5. Skin sensitization test: Test was carried out for six (6) (three males and three females) Guinea pigs according to Maggnusson and Kligman's procedure.

[12] = tested on: healthy women; conditions: human patch test, healthy women aged 20~28
Protocol: as §1
1-6. Human patch test: Human patch test was carried out for thirty (30) healthy women aged 20˜28 according to CTFA Guideline(The Cosmetic Toiletry and Fragrance Association, INC., Washington, D.C. 20036, 1991).

[13] = tested on: subjects; conditions: repeat insult human patch test
Protocol: as §1
1-7. Repeat Insult Human Patch Test: Human patch test was carried out for subjects according to CTFA Guideline.

[14] = tested on: phosphodiesterase; conditions: 37° C., 24 hours, 1% aqueous solution of 1:9 mixture with Tween 20, HPLC
Protocol: The phosphodiesterase was used as biological enzyme, and 1% aqueous solution of 1:9 mixture of preparation example 1 and Tween 20 was prepared to use as an assay sample. After the stirring mixture of the above enzyme, assay sample and medium solution at a temperature of 37° C. for 24 hours, analysis for the hydrolysis ratio of tocopherol derivatives was carried out by using HPLC(MeOH:THF=9:1, R.T.=13.695 min, tocopherol).

| Compound | oxidation ratio of Lard oil [1] | oxidation ratio of linoleic acid [2] | Residual ration(%) ([3]; Month 1) | Residual ration(%) ([3]; Month 2) | Residual ration(%) ([3]; Month 3) | Residual ration(%) ([3]; Month 4) | Residual ration(%) ([3]; Month 5) | Residual ration(%) ([3]; Month 6) | Residual ration(%) ([3]; Month head blank) | coloration degree [4] | further results |
| --- | --- | --- | --- | --- | --- | --- | --- | --- | --- | --- | --- |
| tocopherol [reference compound] | about 90% | about 83% | 100 | 97 | 92 | 88 | 82 | 76 | 100 | increase in coloration at four (4) months or more |  |
| NCCCOP(=O)(O)O [3-aminopropane phosphate, reference compound] |  |  |  |  |  |  |  |  |  |  | Biosynthesis activity (%) ([5]; concentration 10^−4 %): 146% |
| Cc1c(C)c2c(c(C)c1OP(=O)(O)OCCCN)CCC(C)(CCCC(C)CCCC(C)CCCC(C)C)O2 (stereo not drawn) [Preparation Example 1, 3-aminopropyl-α-tocopherol phosphate] | about 5% | about 3% | 100 | 100 | 100 | 100 | 100 | 100 | 100 | did not change in color | death of mice [6]: no death of mice was observed; difference in the body weight after administration [6]: insignificant; abnormal symptoms or changes in body weight [7]: no mice administered with the sample exhibited abnormal symptoms or changes in body weight; abnormal symptom and change of body weight [8]: No abnormal symptom and change of body weight were observed; skin irritation [9]: no skin irritation was observed; eye irritation [10]: no eye irritation on cornea, iris and conjunctiva was observed; skin abnormality (sensitization) [11]: no skin abnormality such as erythema, edema or freckles was observed; primary irritation response [12]: primary irritation response was not observed; repeat irritation / sensitive irritation [13]: no repeat irritation or no sensitive irritation was observed; Biosynthesis activity (%) ([5]; concentration 10^−6 %): 141%; stability by quantitative analysis (NMR Spectroscopy), compared with tocopherol [3]: more stable; hydrolysis ratio [14]: 40% |
| CC(=O)Oc1c(C)c(C)c2c(c1C)CCC(C)(CCC[C@H](C)CCC[C@H](C)CCCC(C)C)O2 (some centres unmarked) [tocopherol acetate] | about 90% | about 83% |  |  |  |  |  |  |  |  |  |
